Converted amounts (≈) assume the structure as drawn.
Tests used:
Assay type in all cases: functional
Staphylococcus aureus [1] = assay: Antibacterial activity against methicillin resistant Staphylococcus aureus ATCC 33592 incubated for 18 hrs by serial two-fold dilution method
Staphylococcus aureus [2] = assay: Antibacterial activity against Staphylococcus aureus ATCC 29213 incubated for 18 hrs by serial two-fold dilution method
[3] = tested on: Staphylococcus epidermidis; assay: Antibacterial activity against Staphylococcus epidermidis ATCC 12228 incubated for 18 hrs by serial two-fold dilution method
Staphylococcus aureus [4] = assay: Antibacterial activity against methicillin resistant Staphylococcus aureus ATCC 43300 incubated for 18 hrs by serial two-fold dilution method

O=C(OC1=CC(=O)N2[C@H](c3ccc(-c4cc(F)cc(F)c4)cc3)c3[nH]c4ccccc4c3C[C@@H]12)c1ccccc1
MIC (Staphylococcus aureus [1]): > 4 µg/mL | MIC (Staphylococcus aureus [2]): > 4 µg/mL | MIC [3]: > 4 µg/mL

C/C(O)=C1\C(=O)[C@@H]2Cc3c([nH]c4ccccc34)[C@@H](c3ccc(C(C)(C)C)cc3)N2C1=O
MIC (Staphylococcus aureus [2]): 4 µg/mL (≈ 9.65 µM)

C/C(O)=C1\C(=O)[C@@H]2Cc3c([nH]c4ccccc34)CN2C1=O
MIC (Staphylococcus aureus [2]): 128 µg/mL (≈ 453 µM)

C/C(O)=C1\C(=O)[C@@H]2Cc3c([nH]c4ccccc34)[C@@H](c3ccc(C)cc3)N2C1=O
MIC (Staphylococcus aureus [2]): 4 µg/mL (≈ 10.7 µM)

O=C1/C(=C(/O)c2ccc(F)cc2)C(=O)N2[C@H](c3ccc(-c4cc(F)cc(F)c4)cc3)c3[nH]c4ccccc4c3C[C@@H]12
MIC (Staphylococcus aureus [1]): 0.5 µg/mL (≈ 0.908 µM) | MIC (Staphylococcus aureus [2]): 0.5 µg/mL (≈ 0.908 µM) | MIC [3]: 0.5 µg/mL (≈ 0.908 µM)

C/C(O)=C1\C(=O)[C@@H]2Cc3c([nH]c4ccccc34)[C@@H](c3ccc(-c4ccc(C(F)(F)F)cc4)o3)N2C1=O
MIC (Staphylococcus aureus [1]): 0.25 µg/mL (≈ 0.508 µM) | MIC (Staphylococcus aureus [2]): 0.25 µg/mL (≈ 0.508 µM) | MIC [3]: 0.25 µg/mL (≈ 0.508 µM) | MIC (Staphylococcus aureus [4]): 0.25 µg/mL (≈ 0.508 µM)

C/C(O)=C1\C(=O)[C@@H]2Cc3c([nH]c4ccccc34)[C@@H](c3ccc(-c4cccc(C(F)(F)F)c4)cc3)N2C1=O
MIC (Staphylococcus aureus [1]): 0.5 µg/mL (≈ 0.995 µM) | MIC (Staphylococcus aureus [2]): 0.5 µg/mL (≈ 0.995 µM) | MIC [3]: 0.063 µg/mL (≈ 0.125 µM)

O=C1/C(=C(/O)c2ccc3ccccc3c2)C(=O)N2[C@H](c3ccc(-c4cc(F)cc(F)c4)cc3)c3[nH]c4ccccc4c3C[C@@H]12
MIC (Staphylococcus aureus [1]): 2 µg/mL (≈ 3.43 µM) | MIC (Staphylococcus aureus [2]): 4 µg/mL (≈ 6.87 µM) | MIC [3]: 2 µg/mL (≈ 3.43 µM)

C/C(O)=C1\C(=O)[C@@H]2Cc3c([nH]c4ccccc34)[C@@H](c3ccc(-c4cc(F)c(F)c(F)c4)cc3)N2C1=O
MIC (Staphylococcus aureus [1]): 1 µg/mL (≈ 2.05 µM) | MIC (Staphylococcus aureus [2]): 0.5 µg/mL (≈ 1.02 µM) | MIC [3]: 1 µg/mL (≈ 2.05 µM)

O=C1/C(=C(/O)c2cccs2)C(=O)N2[C@H](c3ccc(-c4cc(F)cc(F)c4)cc3)c3[nH]c4ccccc4c3C[C@@H]12
MIC (Staphylococcus aureus [1]): 0.25 µg/mL (≈ 0.464 µM) | MIC (Staphylococcus aureus [2]): 0.25 µg/mL (≈ 0.464 µM) | MIC [3]: 0.25 µg/mL (≈ 0.464 µM) | MIC (Staphylococcus aureus [4]): 0.125 µg/mL (≈ 0.232 µM)

O=C(OC1=CC(=O)N2[C@H](c3ccc(-c4cc(F)cc(F)c4)cc3)c3[nH]c4ccccc4c3C[C@@H]12)c1ccc2ccccc2c1
MIC (Staphylococcus aureus [1]): 2 µg/mL (≈ 3.43 µM) | MIC (Staphylococcus aureus [2]): 4 µg/mL (≈ 6.87 µM) | MIC [3]: > 4 µg/mL

C/C(N)=C1\C(=O)[C@@H]2Cc3c([nH]c4ccccc34)[C@@H](c3ccc(-c4ccccc4)cc3)N2C1=O
MIC (Staphylococcus aureus [1]): > 4 µg/mL | MIC (Staphylococcus aureus [2]): > 4 µg/mL | MIC [3]: > 4 µg/mL

C/C(O)=C1\C(=O)[C@@H]2Cc3c([nH]c4ccccc34)[C@H](c3cccc(F)c3)N2C1=O
MIC (Staphylococcus aureus [2]): 32 µg/mL (≈ 85 µM)

Cc1ccc(C(=O)OC2=CC(=O)N3[C@H](c4ccc(-c5cc(F)cc(F)c5)cc4)c4[nH]c5ccccc5c4C[C@@H]23)cc1
MIC (Staphylococcus aureus [1]): > 4 µg/mL | MIC (Staphylococcus aureus [2]): > 4 µg/mL | MIC [3]: > 4 µg/mL

CCn1c2c(c3ccccc31)C[C@H]1C(=O)/C(=C(\C)O)C(=O)N1[C@@H]2c1ccc(-c2ccc(F)cc2)cc1
MIC (Staphylococcus aureus [1]): 0.25 µg/mL (≈ 0.52 µM) | MIC (Staphylococcus aureus [2]): 0.25 µg/mL (≈ 0.52 µM) | MIC [3]: 0.25 µg/mL (≈ 0.52 µM) | MIC (Staphylococcus aureus [4]): 0.125 µg/mL (≈ 0.26 µM)

C/C(N)=C1\C(=O)[C@@H]2Cc3c([nH]c4ccccc34)[C@@H](c3ccc(-c4ccc(OC(F)(F)F)cc4)cc3)N2C1=O
MIC (Staphylococcus aureus [1]): 4 µg/mL (≈ 7.73 µM) | MIC (Staphylococcus aureus [2]): 4 µg/mL (≈ 7.73 µM) | MIC [3]: 4 µg/mL (≈ 7.73 µM)

C/C(O)=C1\C(=O)[C@@H]2Cc3c(n(S(=O)(=O)c4ccc(C)cc4)c4ccccc34)[C@@H](c3ccc(-c4ccc(F)cc4)cc3)N2C1=O
MIC (Staphylococcus aureus [1]): 2 µg/mL (≈ 3.3 µM) | MIC (Staphylococcus aureus [2]): 2 µg/mL (≈ 3.3 µM) | MIC [3]: 0.25 µg/mL (≈ 0.412 µM)

C/C(O)=C1\C(=O)[C@@H]2Cc3c([nH]c4ccccc34)[C@@H](c3ccccc3)N2C1=O
MIC (Staphylococcus aureus [2]): 8 µg/mL (≈ 22.3 µM)

C/C(O)=C1\C(=O)[C@@H]2Cc3c([nH]c4ccccc34)[C@@H](c3ccc(F)cc3F)N2C1=O
MIC (Staphylococcus aureus [2]): 8 µg/mL (≈ 20.3 µM)

C/C(O)=C1\C(=O)[C@@H]2Cc3c([nH]c4ccccc34)[C@@H](Cc3ccccc3)N2C1=O
MIC (Staphylococcus aureus [2]): 32 µg/mL (≈ 85.9 µM)

C/C(O)=C1\C(=O)[C@@H]2Cc3c([nH]c4ccccc34)[C@@H](c3ccc(C(F)(F)F)cc3)N2C1=O
MIC (Staphylococcus aureus [2]): 2 µg/mL (≈ 4.69 µM)

O=C(OC1=CC(=O)N2[C@H](c3ccc(-c4cc(F)cc(F)c4)cc3)c3[nH]c4ccccc4c3C[C@@H]12)c1ccc(F)cc1
MIC (Staphylococcus aureus [1]): > 4 µg/mL | MIC (Staphylococcus aureus [2]): > 4 µg/mL | MIC [3]: > 4 µg/mL

CC(=O)OC1=CC(=O)N2[C@H](c3ccc(-c4cc(F)cc(F)c4)cc3)c3[nH]c4ccccc4c3C[C@@H]12
MIC (Staphylococcus aureus [1]): > 4 µg/mL | MIC (Staphylococcus aureus [2]): > 4 µg/mL | MIC [3]: > 4 µg/mL

C/C(O)=C1\C(=O)[C@@H]2Cc3c(n(C)c4ccccc34)[C@@H](c3ccc(-c4ccc(F)cc4)cc3)N2C1=O
MIC (Staphylococcus aureus [1]): 0.5 µg/mL (≈ 1.07 µM) | MIC (Staphylococcus aureus [2]): 0.25 µg/mL (≈ 0.536 µM) | MIC [3]: 0.063 µg/mL (≈ 0.135 µM)

C/C(O)=C1\C(=O)[C@@H]2Cc3c([nH]c4ccccc34)[C@H](c3ccccc3)N2C1=O
MIC (Staphylococcus aureus [2]): 16 µg/mL (≈ 44.6 µM)

C/C(O)=C1\C(=O)[C@@H]2Cc3c([nH]c4ccccc34)[C@@H](c3cccc(F)c3)N2C1=O
MIC (Staphylococcus aureus [2]): 8 µg/mL (≈ 21.3 µM)

C/C(O)=C1\C(=O)[C@@H]2Cc3c([nH]c4ccccc34)[C@@H](C)N2C1=O
MIC (Staphylococcus aureus [2]): > 128 µg/mL

Cc1ccc(/C(O)=C2\C(=O)[C@@H]3Cc4c([nH]c5ccccc45)[C@@H](c4ccc(-c5cc(F)cc(F)c5)cc4)N3C2=O)cc1
MIC (Staphylococcus aureus [1]): 0.5 µg/mL (≈ 0.915 µM) | MIC (Staphylococcus aureus [2]): 0.5 µg/mL (≈ 0.915 µM) | MIC [3]: 0.25 µg/mL (≈ 0.457 µM)
